Results: ChEMBL document CHEMBL3885861, “Open TG-GATES”

Species: Rattus norvegicus
Assay: Open TG-GATES - Regimen: Daily Repeat
Type: toxicity, organism-based, Sprague-Dawley
Set-up: regimen Daily Repeat, gender Male, age 6 weeks
Conditions: in vivo, po, route gavage; for APTT / Bas / Eos / Fbg / Hb / Ht / Lym / MCH / MCHC / MCV / Mono / Neu / PT / Plat / RBC / Ret / WBC: tissue Blood; for KIDNEY_L / KIDNEY_R / KIDNEY_TOTAL: tissue Kidney; for LIVER: tissue Liver; for A/G / ALP / ALT / AST / BUN / CRE / Ca / Cl / DBIL / GLC / IP / K / LDH / Na / PL / RALB / TBIL / TC / TG / TP / gamma-GTP: tissue Plasma
[1] = 0 mg/kg, 72 h, dose level Control, time 3 day
[2] = 0 mg/kg, […], dose level Control, time 7 day
[3] = 0 mg/kg, […], dose level Control, time 14 day
[4] = 0 mg/kg, […], dose level Control, time 28 day
[5] = 30 mg/kg, 72 h, dose level Low, time 3 day
[6] = 30 mg/kg, […], dose level Low, time 7 day
[7] = 30 mg/kg, […], dose level Low, time 14 day
[8] = 30 mg/kg, […], dose level Low, time 28 day

Clc1c(Cl)c(Cl)c(Cl)c(Cl)c1Cl [PERCHLOROBENZENE]
TERMINAL_BW [1]: 224.3 g
APTT [1]: 16.2 s
Bas [1]: 0%
Eos [1]: 1.2%
Fbg [1]: 217.4 mg/dL
Hb [1]: 13.7 g/dL
Ht [1]: 40.9%
Lym [1]: 77%
MCH [1]: 22 pg
MCHC [1]: 33.5%
MCV [1]: 65.6 fL
Mono [1]: 8%
Neu [1]: 13.8%
PT [1]: 11.8 s
Plat [1]: 98.6 x10_4/uL
RBC [1]: 623.2 x10_4/ul
Ret [1]: 8.6%
WBC [1]: 102.9 x10_2/uL
KIDNEY_L [1]: 1.1 g
KIDNEY_R [1]: 1.1 g
KIDNEY_TOTAL [1]: 2.2 g
LIVER [1]: 11.5 g
A/G [1]: 2.1
ALP [1]: 882.4 IU/L
ALT [1]: 40.2 IU/L
AST [1]: 59 IU/L
BUN [1]: 16.2 mg/dL
CRE [1]: 0.5 mg/dL
Ca [1]: 10.5 mg/dL
Cl [1]: 105.2 meq/L
DBIL [1]: 0.038 mg/dL
GLC [1]: 193.4 mg/dL
IP [1]: 8.5 mg/dL
K [1]: 5.4 meq/L
LDH [1]: 85.8 IU/L
Na [1]: 138.6 meq/L
PL [1]: 135 mg/dL
RALB [1]: 3.9 g/dL
TBIL [1]: 0.3 mg/dL
TC [1]: 73 mg/dL
TG [1]: 68.8 mg/dL
TP [1]: 5.8 g/dL
gamma-GTP [1]: 1.4 IU/L
TERMINAL_BW [2]: 255.4 g
TERMINAL_BW [3]: 321.1 g
TERMINAL_BW [4]: 417.1 g
APTT [2]: 15.8 s
Bas [2]: 0%
Eos [2]: 1.2%
Fbg [2]: 222.8 mg/dL
Hb [2]: 14.2 g/dL
Ht [2]: 42.4%
Lym [2]: 76.6%
MCH [2]: 21.8 pg
MCHC [2]: 33.4%
MCV [2]: 65.2 fL
Mono [2]: 7.2%
Neu [2]: 14.8%
PT [2]: 12 s
Plat [2]: 96.5 x10_4/uL
RBC [2]: 651.2 x10_4/ul
Ret [2]: 5.9%
WBC [2]: 105.4 x10_2/uL
APTT [3]: 16 s
Bas [3]: 0%
Eos [3]: 1%
Fbg [3]: 237.6 mg/dL
Hb [3]: 14.4 g/dL
Ht [3]: 43%
Lym [3]: 78.8%
MCH [3]: 21.2 pg
MCHC [3]: 33.5%
MCV [3]: 63.2 fL
Mono [3]: 6.4%
Neu [3]: 13.8%
PT [3]: 11.9 s
Plat [3]: 106.8 x10_4/uL
RBC [3]: 681.2 x10_4/ul
Ret [3]: 5.2%
WBC [3]: 160.8 x10_2/uL
APTT [4]: 16.5 s
Bas [4]: 0%
Eos [4]: 1.2%
Fbg [4]: 221 mg/dL
Hb [4]: 15.2 g/dL
Ht [4]: 45.9%
Lym [4]: 83.4%
MCH [4]: 19.3 pg
MCHC [4]: 33.1%
MCV [4]: 58.5 fL
Mono [4]: 4.8%
Neu [4]: 10.8%
PT [4]: 11.7 s
Plat [4]: 97.1 x10_4/uL
RBC [4]: 783.8 x10_4/ul
Ret [4]: 2.5%
WBC [4]: 133.5 x10_2/uL
KIDNEY_L [2]: 1.1 g
KIDNEY_R [2]: 1.2 g
KIDNEY_TOTAL [2]: 2.3 g
KIDNEY_L [3]: 1.3 g
KIDNEY_R [3]: 1.3 g
KIDNEY_TOTAL [3]: 2.6 g
KIDNEY_L [4]: 1.4 g
KIDNEY_R [4]: 1.5 g
KIDNEY_TOTAL [4]: 2.9 g
LIVER [2]: 12.9 g
LIVER [3]: 15.7 g
LIVER [4]: 18.2 g
A/G [2]: 2
ALP [2]: 912 IU/L
ALT [2]: 33.4 IU/L
AST [2]: 58.6 IU/L
BUN [2]: 19.2 mg/dL
CRE [2]: 0.6 mg/dL
Ca [2]: 10.3 mg/dL
Cl [2]: 105.2 meq/L
DBIL [2]: 0.024 mg/dL
GLC [2]: 193.6 mg/dL
IP [2]: 7.7 mg/dL
K [2]: 4.8 meq/L
LDH [2]: 95.8 IU/L
Na [2]: 137.4 meq/L
PL [2]: 148.6 mg/dL
RALB [2]: 4 g/dL
TBIL [2]: 0.4 mg/dL
TC [2]: 78.2 mg/dL
TG [2]: 94.6 mg/dL
TP [2]: 5.9 g/dL
gamma-GTP [2]: 1 IU/L
A/G [3]: 1.8
ALP [3]: 615.2 IU/L
ALT [3]: 31.2 IU/L
AST [3]: 58.2 IU/L
BUN [3]: 18.6 mg/dL
CRE [3]: 0.6 mg/dL
Ca [3]: 10.2 mg/dL
Cl [3]: 105.6 meq/L
DBIL [3]: 0.004 mg/dL
GLC [3]: 189 mg/dL
IP [3]: 7.6 mg/dL
K [3]: 4.9 meq/L
LDH [3]: 98 IU/L
Na [3]: 138.4 meq/L
PL [3]: 155.6 mg/dL
RALB [3]: 4 g/dL
TBIL [3]: 0.3 mg/dL
TC [3]: 79 mg/dL
TG [3]: 136.4 mg/dL
TP [3]: 6.2 g/dL
gamma-GTP [3]: 1.2 IU/L
A/G [4]: 1.8
ALP [4]: 643.6 IU/L
ALT [4]: 32.6 IU/L
AST [4]: 54.2 IU/L
BUN [4]: 18.6 mg/dL
CRE [4]: 0.7 mg/dL
Ca [4]: 10.6 mg/dL
Cl [4]: 105.4 meq/L
DBIL [4]: 0.014 mg/dL
GLC [4]: 193 mg/dL
IP [4]: 7.5 mg/dL
K [4]: 4.3 meq/L
LDH [4]: 102 IU/L
Na [4]: 140 meq/L
PL [4]: 160.4 mg/dL
RALB [4]: 4.2 g/dL
TBIL [4]: 0.3 mg/dL
TC [4]: 77 mg/dL
TG [4]: 140.6 mg/dL
TP [4]: 6.5 g/dL
gamma-GTP [4]: 1 IU/L
TERMINAL_BW [5]: 223.9 g
APTT [5]: 16.2 s
Bas [5]: 0%
Eos [5]: 1.2%
Fbg [5]: 215.4 mg/dL
Hb [5]: 13.9 g/dL
Ht [5]: 41.8%
Lym [5]: 72.2%
MCH [5]: 21.8 pg
MCHC [5]: 33.3%
MCV [5]: 65.6 fL
Mono [5]: 6.8%
Neu [5]: 19.6%
PT [5]: 11.5 s
Plat [5]: 98.9 x10_4/uL
RBC [5]: 637.6 x10_4/ul
Ret [5]: 7.6%
WBC [5]: 102.3 x10_2/uL
KIDNEY_L [5]: 1.1 g
KIDNEY_R [5]: 1.1 g
KIDNEY_TOTAL [5]: 2.2 g
LIVER [5]: 12.4 g
A/G [5]: 2.2
ALP [5]: 816 IU/L
ALT [5]: 41.6 IU/L
AST [5]: 67 IU/L
BUN [5]: 14.6 mg/dL
CRE [5]: 0.5 mg/dL
Ca [5]: 10.5 mg/dL
Cl [5]: 105.6 meq/L
DBIL [5]: 0.028 mg/dL
GLC [5]: 194.4 mg/dL
IP [5]: 8.3 mg/dL
K [5]: 5.1 meq/L
LDH [5]: 104 IU/L
Na [5]: 139.6 meq/L
PL [5]: 143.8 mg/dL
RALB [5]: 3.9 g/dL
TBIL [5]: 0.4 mg/dL
TC [5]: 82 mg/dL
TG [5]: 79.8 mg/dL
TP [5]: 5.7 g/dL
gamma-GTP [5]: 1.4 IU/L
TERMINAL_BW [6]: 255.4 g
TERMINAL_BW [7]: 320.4 g
TERMINAL_BW [8]: 413.2 g
APTT [6]: 16.5 s
Bas [6]: 0%
Eos [6]: 1.4%
Fbg [6]: 225 mg/dL
Hb [6]: 14 g/dL
Ht [6]: 42%
Lym [6]: 79.6%
MCH [6]: 21.1 pg
MCHC [6]: 33.4%
MCV [6]: 63.3 fL
Mono [6]: 5.2%
Neu [6]: 14.2%
PT [6]: 11.6 s
Plat [6]: 116.4 x10_4/uL
RBC [6]: 663.6 x10_4/ul
Ret [6]: 5.4%
WBC [6]: 97.6 x10_2/uL
APTT [7]: 17.7 s
Bas [7]: 0%
Eos [7]: 1.6%
Fbg [7]: 225.8 mg/dL
Hb [7]: 14.4 g/dL
Ht [7]: 43%
Lym [7]: 66.8%
MCH [7]: 20.5 pg
MCHC [7]: 33.5%
MCV [7]: 61.3 fL
Mono [7]: 12%
Neu [7]: 19.6%
PT [7]: 11.9 s
Plat [7]: 119 x10_4/uL
RBC [7]: 702.6 x10_4/ul
Ret [7]: 4.3%
WBC [7]: 113.1 x10_2/uL
APTT [8]: 21.6 s
Bas [8]: 0%
Eos [8]: 1.8%
Fbg [8]: 258.6 mg/dL
Hb [8]: 15 g/dL
Ht [8]: 44.8%
Lym [8]: 69.8%
MCH [8]: 20.4 pg
MCHC [8]: 33.4%
MCV [8]: 61 fL
Mono [8]: 12%
Neu [8]: 16.2%
PT [8]: 13.2 s
Plat [8]: 102.4 x10_4/uL
RBC [8]: 735 x10_4/ul
Ret [8]: 3%
WBC [8]: 113.2 x10_2/uL
KIDNEY_L [6]: 1.2 g
KIDNEY_R [6]: 1.2 g
KIDNEY_TOTAL [6]: 2.4 g
KIDNEY_L [7]: 1.3 g
KIDNEY_R [7]: 1.4 g
KIDNEY_TOTAL [7]: 2.7 g
KIDNEY_L [8]: 1.7 g
KIDNEY_R [8]: 1.7 g
KIDNEY_TOTAL [8]: 3.4 g
LIVER [6]: 14.7 g
LIVER [7]: 20.2 g
LIVER [8]: 27.3 g
A/G [6]: 2.1
ALP [6]: 719.8 IU/L
ALT [6]: 33.2 IU/L
AST [6]: 55.8 IU/L
BUN [6]: 15.8 mg/dL
CRE [6]: 0.6 mg/dL
Ca [6]: 10.4 mg/dL
Cl [6]: 104.8 meq/L
DBIL [6]: 0.002 mg/dL
GLC [6]: 190.6 mg/dL
IP [6]: 7.9 mg/dL
K [6]: 5 meq/L
LDH [6]: 93.6 IU/L
Na [6]: 137.6 meq/L
PL [6]: 166.4 mg/dL
RALB [6]: 4 g/dL
TBIL [6]: 0.5 mg/dL
TC [6]: 89.4 mg/dL
TG [6]: 129.8 mg/dL
TP [6]: 5.9 g/dL
gamma-GTP [6]: 1.2 IU/L
A/G [7]: 1.8
ALP [7]: 589.2 IU/L
ALT [7]: 35.4 IU/L
AST [7]: 61.8 IU/L
BUN [7]: 17.6 mg/dL
CRE [7]: 0.6 mg/dL
Ca [7]: 10.4 mg/dL
Cl [7]: 105.4 meq/L
DBIL [7]: 0.004 mg/dL
GLC [7]: 173.2 mg/dL
IP [7]: 7.1 mg/dL
K [7]: 4.9 meq/L
LDH [7]: 84.6 IU/L
Na [7]: 139.6 meq/L
PL [7]: 201 mg/dL
RALB [7]: 4 g/dL
TBIL [7]: 0.4 mg/dL
TC [7]: 120.6 mg/dL
TG [7]: 119.6 mg/dL
TP [7]: 6.2 g/dL
gamma-GTP [7]: 2 IU/L
A/G [8]: 1.6
ALP [8]: 345.6 IU/L
ALT [8]: 35.6 IU/L
AST [8]: 55.2 IU/L
BUN [8]: 18.6 mg/dL
CRE [8]: 0.7 mg/dL
Ca [8]: 10.8 mg/dL
Cl [8]: 105 meq/L
DBIL [8]: 0.004 mg/dL
GLC [8]: 160.4 mg/dL
IP [8]: 7 mg/dL
K [8]: 4.7 meq/L
LDH [8]: 75 IU/L
Na [8]: 141.2 meq/L
PL [8]: 190.6 mg/dL
RALB [8]: 4.4 g/dL
TBIL [8]: 0.4 mg/dL
TC [8]: 118 mg/dL
TG [8]: 127.4 mg/dL
TP [8]: 7.2 g/dL
gamma-GTP [8]: 3.2 IU/L
